Columns and labels:
rat NaP2b (SLC34A2) = biological target: T1, rat NaP2b (SLC34A2) (Rattus norvegicus, UniProt Q9JJ09); assay: Inhibition of NaP2b-mediated Pi (33P) uptake in transfected HEK293 cells, rat NaP2b; format: cell-based; settings: HEK293 cells transfected with rat NaP2b, 100 uM phosphate, 0.1 nM to 30 uM, read-out: pIC50 range for rat Nap2b (converted)
T1 construct: host or cells: HEK293
T1 sequence (Q9JJ09 1-695): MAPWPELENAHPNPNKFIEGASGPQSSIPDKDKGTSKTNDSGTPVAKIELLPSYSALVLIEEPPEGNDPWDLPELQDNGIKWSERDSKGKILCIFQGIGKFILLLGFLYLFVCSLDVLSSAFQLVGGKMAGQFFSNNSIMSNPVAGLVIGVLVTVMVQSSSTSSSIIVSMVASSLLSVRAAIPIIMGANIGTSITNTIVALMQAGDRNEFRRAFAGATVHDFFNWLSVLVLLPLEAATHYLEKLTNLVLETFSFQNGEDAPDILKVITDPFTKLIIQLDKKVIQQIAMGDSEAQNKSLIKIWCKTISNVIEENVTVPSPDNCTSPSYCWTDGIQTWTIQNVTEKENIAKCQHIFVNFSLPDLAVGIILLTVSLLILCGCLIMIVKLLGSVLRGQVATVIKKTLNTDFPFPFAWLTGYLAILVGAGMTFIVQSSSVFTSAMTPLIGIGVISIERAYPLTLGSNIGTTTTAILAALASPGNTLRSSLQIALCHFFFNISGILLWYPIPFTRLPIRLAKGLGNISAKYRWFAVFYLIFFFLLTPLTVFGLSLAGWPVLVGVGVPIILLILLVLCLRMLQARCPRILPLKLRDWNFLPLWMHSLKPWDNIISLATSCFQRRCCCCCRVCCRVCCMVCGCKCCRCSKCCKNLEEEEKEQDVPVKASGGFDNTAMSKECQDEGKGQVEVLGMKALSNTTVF
Outline: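 HEK293 cells transiently transfected with rat NaP2b; 33P-phosphate uptake measured in sodium or choline buffer (100 uM KH2PO4, PiT-silencing agent, pH 7.4) with compound at twelve concentrations, 0.1 nM–30 uM, in duplicate. Lysed cells counted by scintillation; pIC50 derived from concentration-response.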

human NaP2b (SLC34A2) = biological target: T2, human NaP2b (SLC34A2) (Homo sapiens, UniProt O95436); assay: Inhibition of NaP2b-mediated Pi (33P) uptake in transfected HEK293 cells, human NaP2b; format: cell-based; settings: HEK293 cells transfected with human NaP2b, 100 uM phosphate, 0.1 nM to 30 uM, read-out: pIC50 range for human NaP2b (converted)
T2 construct: host or cells: HEK293
T2 sequence (O95436 1-690): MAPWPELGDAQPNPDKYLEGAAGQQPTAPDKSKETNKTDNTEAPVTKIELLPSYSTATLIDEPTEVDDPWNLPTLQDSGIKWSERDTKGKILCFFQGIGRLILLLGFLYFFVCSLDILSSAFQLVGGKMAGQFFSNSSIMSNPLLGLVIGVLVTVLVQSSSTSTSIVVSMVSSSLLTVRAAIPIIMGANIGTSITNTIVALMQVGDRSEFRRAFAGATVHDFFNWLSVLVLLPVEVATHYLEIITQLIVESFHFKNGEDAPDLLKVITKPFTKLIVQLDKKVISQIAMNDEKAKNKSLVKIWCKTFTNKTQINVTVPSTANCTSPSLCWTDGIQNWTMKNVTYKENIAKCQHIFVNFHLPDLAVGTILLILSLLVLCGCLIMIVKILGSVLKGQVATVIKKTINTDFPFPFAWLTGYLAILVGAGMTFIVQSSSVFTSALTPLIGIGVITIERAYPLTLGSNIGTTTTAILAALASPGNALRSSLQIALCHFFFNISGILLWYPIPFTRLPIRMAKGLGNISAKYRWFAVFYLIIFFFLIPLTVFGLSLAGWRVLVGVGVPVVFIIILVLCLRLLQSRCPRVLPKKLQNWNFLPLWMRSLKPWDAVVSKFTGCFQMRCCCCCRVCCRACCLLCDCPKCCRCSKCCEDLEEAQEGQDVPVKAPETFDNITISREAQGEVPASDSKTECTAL
Outline: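 HEK293 cells transiently expressing mutated human NaP2b, with PiT transport pharmacologically silenced; sodium-dependent 33P-phosphate uptake (100 uM KH2PO4, pH 7.4) measured over 3–30 min at room temperature by scintillation. Twelve compound concentrations from 0.1 nM to 30 uM, in duplicate; pIC50 calculated.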

| IC50 (rat NaP2b (SLC34A2)) | IC50 (human NaP2b (SLC34A2)) | SMILES |
| --- | --- | --- |
| 1 to 7.94 µM | 1 to 7.94 µM | O=C(O)CCSCc1cccc(C(=O)Nc2ccc(N3CCCCC3)cc2-c2cc(C(=O)NCc3cccc(C(F)(F)F)c3)ccn2)c1 [Example 1.1, 3-(3-((2-(4-((3-(trifluoromethyl)benzyl)carbamoyl)pyridin-2-yl)-4-(piperidin-1-yl)phenyl)carbamoyl)-benzylthio)propanoic acid] |
| < 1 µM | < 1 µM | CCN(CC)c1ccc(NC(=O)c2cccc(C(=O)N(C)CCN3CCOCC3)c2)c(-c2cc(C(=O)NCc3cccc(C(F)(F)F)c3)ccn2)c1 [Example 25, N1-(4-(Diethylamino)-2-(4-((3-(trifluoromethyl)benzyl)carbamoyl)pyridin-2-yl)phenyl)-N3-methyl-N3-(2-morpholinoethyl)isophthalamide] |

Reference: patent US9301951B2 (Ardelyx, Inc., priority 2010, dated 2016)
